The values that follow come from patent US7785807B2, “Voltage-gated, pH-sensitive anion channel and its novel splice variant involved in taste sensation” (Monell Chemical Senses Center, priority 2004, dated 2010).

Assay type in all cases: cell-based
For one assay, the target named is T1, mouse ClC-4 (Mus musculus, UniProt Q61418).
T1 construct: a pair of PCR primers was designed to encompass the entire coding region; expressed in transfected cells; host or cells: Xenopus laevis oocytes injected with in vitro transcribed cRNA
T1 sequence (Q61418 1-747): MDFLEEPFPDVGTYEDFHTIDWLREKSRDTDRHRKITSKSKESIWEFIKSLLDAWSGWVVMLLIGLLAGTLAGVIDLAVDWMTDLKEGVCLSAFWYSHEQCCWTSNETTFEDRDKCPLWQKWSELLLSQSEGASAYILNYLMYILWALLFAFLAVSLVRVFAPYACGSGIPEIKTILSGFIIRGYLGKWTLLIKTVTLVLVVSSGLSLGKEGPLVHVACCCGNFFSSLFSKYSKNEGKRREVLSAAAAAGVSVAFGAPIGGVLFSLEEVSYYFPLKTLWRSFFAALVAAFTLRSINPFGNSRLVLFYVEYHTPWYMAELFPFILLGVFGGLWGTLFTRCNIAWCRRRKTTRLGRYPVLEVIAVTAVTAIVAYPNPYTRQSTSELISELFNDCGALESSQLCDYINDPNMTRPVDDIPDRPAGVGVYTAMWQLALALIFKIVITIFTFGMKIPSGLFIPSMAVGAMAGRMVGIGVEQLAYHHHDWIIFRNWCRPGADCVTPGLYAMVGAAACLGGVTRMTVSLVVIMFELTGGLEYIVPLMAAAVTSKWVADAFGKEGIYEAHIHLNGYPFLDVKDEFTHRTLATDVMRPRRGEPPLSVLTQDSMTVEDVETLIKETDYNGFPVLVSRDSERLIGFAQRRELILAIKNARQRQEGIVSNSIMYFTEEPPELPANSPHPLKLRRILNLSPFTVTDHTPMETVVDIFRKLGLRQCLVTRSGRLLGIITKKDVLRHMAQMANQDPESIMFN
Briefly: Two-electrode voltage-clamp recording of mouse ClC-4 expressed in Xenopus oocytes, chloride channel inhibitor effect. The procedure:
(§1) ClC-4 and ClC-4A cDNAs were subcloned into the expression vector pCR Blunt II TOPO. Capped sense cRNA was synthesized from the linearized expression constructs by T7 RNA polymerase with nMessage mMachine in vitro transcription kit and tailed with polyA tailing kit (Ambion). The synthesized cRNA products were phenol extracted, ethyl alcohol precipitated, and then dissolved in nuclease-free water at about 0.5 ng/nl for injection. Dumont stage V or VI oocytes were obtained from adult female laboratory bred Xenopus laevis, and their follicles were removed by collagenase digestion. […] Membrane currents were recorded using the two-electrode voltage-clamp technique in ND96 solution (96 mM NaCl, 2 mM KCl, 1.8 mM CaCl2, 1 mM MgCl2, 5 mM Na-HEPES, pH 7.4). […]
(§2) Recording and current-passing micropipettes with tip resistance <5 MΩ when filled with 3 M KCl were pulled from glass capillaries (A-M Systems Inc., Carlsburg, Wash., USA) using a horizontal puller (Suffer P-80/PC). Currents were recorded with a GeneClamp 500 amplifier, digitized with a Digidata 1200 A/D-D/A system, and stored on a computer running pCLAMP 6 software (all from Axon Instruments, Foster City, Calif., USA). […]
On the technique in general: Two-electrode voltage clamp is typically applied to oocytes expressing channels or transporters.

Another assay has as its target T2, ClC-4A (Mus musculus, UniProt Q61418).
T2 construct: expressed in transfected cells; host or cells: Xenopus laevis oocytes injected with in vitro transcribed cRNA
T2 sequence (Q61418 61-747): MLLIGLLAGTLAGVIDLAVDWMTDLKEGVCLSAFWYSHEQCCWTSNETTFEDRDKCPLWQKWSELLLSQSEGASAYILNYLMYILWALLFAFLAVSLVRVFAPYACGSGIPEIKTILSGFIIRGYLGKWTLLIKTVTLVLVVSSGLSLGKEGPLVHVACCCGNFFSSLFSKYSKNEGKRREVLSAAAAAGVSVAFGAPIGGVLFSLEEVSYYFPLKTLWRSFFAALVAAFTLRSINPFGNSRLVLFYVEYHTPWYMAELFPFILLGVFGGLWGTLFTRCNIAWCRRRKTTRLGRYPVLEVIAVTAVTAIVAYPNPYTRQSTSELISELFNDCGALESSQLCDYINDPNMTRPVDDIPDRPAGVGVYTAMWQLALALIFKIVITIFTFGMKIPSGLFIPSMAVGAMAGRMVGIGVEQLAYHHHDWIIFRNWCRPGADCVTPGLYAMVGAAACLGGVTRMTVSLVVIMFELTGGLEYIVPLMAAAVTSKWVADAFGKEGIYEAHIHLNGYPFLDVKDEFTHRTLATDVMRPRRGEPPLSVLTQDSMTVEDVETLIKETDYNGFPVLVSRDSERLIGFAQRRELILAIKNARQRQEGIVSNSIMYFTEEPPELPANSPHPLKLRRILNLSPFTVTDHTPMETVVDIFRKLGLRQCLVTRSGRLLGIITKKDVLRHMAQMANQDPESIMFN
The experiment in a line: Two-electrode voltage-clamp recording of ClC-4A expressed in Xenopus oocytes, chloride channel inhibitor effect. The procedure:
as §1, §2

The next assay has as its target T3, human ClC-4 (Homo sapiens, UniProt P51793).
T3 construct: one clone was isolated, which contained the entire coding region; expressed in transfected cells; host or cells: Xenopus laevis oocytes injected with in vitro transcribed cRNA
T3 sequence (P51793 1-760): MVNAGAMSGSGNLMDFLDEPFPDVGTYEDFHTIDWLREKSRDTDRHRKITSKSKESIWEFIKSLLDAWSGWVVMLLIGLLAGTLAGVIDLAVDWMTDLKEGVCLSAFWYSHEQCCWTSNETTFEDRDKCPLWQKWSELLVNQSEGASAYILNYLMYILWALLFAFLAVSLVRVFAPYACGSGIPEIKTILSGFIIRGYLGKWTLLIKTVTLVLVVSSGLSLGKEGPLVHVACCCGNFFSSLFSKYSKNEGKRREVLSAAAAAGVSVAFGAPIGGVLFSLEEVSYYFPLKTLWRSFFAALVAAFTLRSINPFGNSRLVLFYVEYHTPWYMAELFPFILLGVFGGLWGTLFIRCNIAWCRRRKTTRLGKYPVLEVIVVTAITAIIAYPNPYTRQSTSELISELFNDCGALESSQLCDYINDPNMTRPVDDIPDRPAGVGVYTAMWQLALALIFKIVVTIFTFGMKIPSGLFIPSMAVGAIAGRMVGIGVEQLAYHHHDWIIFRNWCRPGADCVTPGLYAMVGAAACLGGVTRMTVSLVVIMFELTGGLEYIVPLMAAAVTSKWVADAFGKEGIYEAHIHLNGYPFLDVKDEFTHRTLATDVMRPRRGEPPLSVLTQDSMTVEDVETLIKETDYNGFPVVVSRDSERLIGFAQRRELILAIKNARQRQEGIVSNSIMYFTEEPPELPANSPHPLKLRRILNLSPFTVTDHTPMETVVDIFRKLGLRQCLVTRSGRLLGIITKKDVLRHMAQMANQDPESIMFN
The experiment in a line: Two-electrode voltage-clamp recording of human ClC-4 expressed in Xenopus oocytes, chloride channel inhibitor effect. The procedure: as §1, §2

Where [1] appears, read: 0.3 mM NFA, pH 7.4, Xenopus oocytes.
Setting [2] is: 0.1 mM NPPB, optimal pH, Xenopus oocytes.

The structures appear in SMILES notation. “Also recorded” adds a separate entry of the source.

Take `O=C(O)c1cccnc1Nc1cccc(C(F)(F)F)c1` [NFA, niflumic acid]: the “inhibition on ion channel conductance” value is listed as “only a slight inhibitory effect” at mouse ClC-4 (setting [1]); “significantly inhibited” at ClC-4A (0.3 mM NFA, pH 5.5, Xenopus oocytes); “only a slight inhibitory effect” at human ClC-4 (setting [1]).
On to `O=C(O)c1cc([N+](=O)[O-])ccc1NCCCc1ccccc1` [NPPB, 5-nitro-2-(3-phenylpropylamino)-benzoic acid], for which the “inhibition on ion channel conductance” value against mouse ClC-4 (setting [2]) is on record as “no apparent effect”; on ClC-4A (setting [2]), “slightly inhibit; also recorded: inhibited”; against human ClC-4 (setting [2]), “no apparent effect”.
